How the values were obtained:
Assay type in all cases: in vivo
[1] = tested on: Tetranychus urticae (spider mites - adult); test: Contact test, spider mites - adult (TUa), French bean leaf; conditions: 72 h, 3 days, read-out: TUA grading of mortality
Method in brief: (§1)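 Mortality scored 1–7 days post-treatment. Test liquids at 100–500 ppm (acetone stock diluted into water + 0.1% w/w wetting agent) applied to pests, their plant/food medium, or both.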

[2] = tested on: Tetranychus urticae (spider mites - ova); test: Contact test, spider mites - ova (TUe), French bean leaf; conditions: 144 h, 6 days, read-out: TUE grading of mortality
Method in brief: as §1

Myzus persicae (aphids) = test: Contact test, aphids (MP), Chinese Cabbage leaf; conditions: 72 h, 3 days, read-out: MP grading of mortality
Method in brief: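 Aphids on a host plant and/or the plant itself were treated with 100–500 ppm of product, applied from acetone diluted in water containing 0.1% SYNPERONIC NX wetting agent. Mortality was scored usually one to seven days after treatment.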

[3] = tested on: Nilaparvata lugens (brown plant hopper - nymphs); test: Contact test, brown plant hopper - nymphs (NL), Rice plant; conditions: 72 h, 3 days, read-out: NL grading of mortality
Method in brief: as §1

[4] = tested on: Musca domestica (houseflies - adults); test: Knockdown test, houseflies - adults (MD/KD), Cotton wool/sugar; conditions: 4 hours, read-out: MD/KD grading of knockdown
Method in brief: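 Product was dissolved in acetone and diluted with water containing 0.1% wetting agent to 100–500 ppm. The flies and/or their food medium were treated with the preparation. Mortality was scored 1–7 days after treatment, with an additional knockdown assessment for houseflies.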

[5] = tested on: Musca domestica (houseflies - adults); test: Contact test, houseflies - adults (MD), Cotton wool/sugar; conditions: 24 h, 1 day, read-out: MD grading of mortality
Method in brief: as §1

[6] = tested on: Blattella germanica (cockroach nymphs); test: Residual test, cockroach nymphs (BG), Plastic pot; conditions: 72 h, 3 days, read-out: BG grading of mortality
Method in brief: as §1

[7] = tested on: Heliothis virescens (tobacco budworm - larvae); test: Residual test, tobacco budworm - larvae (HV), Cotton leaf; conditions: 72 h, read-out: HV grading of mortality
Method in brief: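 Products applied as acetone solutions diluted in water with 0.1% wetting agent, at 100–500 ppm; pests on host plant or food, with pests and/or medium treated. Mortality or knockdown scored 1–7 days after treatment and graded A (80–100%), B (50–79%) or C (<50%).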

[8] = tested on: Spodoptera exigua (lesser army worm - larvae); test: Residual test, lesser army worm - larvae (SP), Cotton leaf; conditions: 72 h, 3 days, read-out: SP grading of mortality
Method in brief: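 Compound dissolved in acetone and diluted in water with 0.1% Synperonic NX wetting agent to 100–500 ppm. Pests on host plant or food, with pests and/or medium treated. Mortality assessed 1–7 days after treatment and graded A (80–100%), B (50–79%) or C (<50%).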

[9] = tested on: Diabrotica balteata (rootworm larvae); test: Residual test, rootworm larvae (DB), Filter paper/maize seed; conditions: 72 h, 3 days, read-out: DB grading of mortality
Method in brief: as §1

[10] = tested on: Meloidogyne incognita (Tomato root knot eelworm - larvae); test: Residual test, Tomato root knot eelworm - larvae (MI), Semi in-vitro; conditions: 168 h, application rate is half that recorded, 7 days, read-out: MI grading of mortality; for mortality at 250 µg/mL: rate column 500 ppm
Description: The activity of the Product was determined using a variety of insect pests. The Product was used in the form of liquid preparations containing from 100 to 500 parts per million (ppm) by weight of the Product. The preparations were made by dissolving the Product in acetone and diluting the solutions with water containing 0.1% by weight of a wetting agent sold under the trade name "SYNPERONIC" NX until the liquid preparations contained the required concentration of the Product.
The test procedure adopted with regard to each pest was basically the same and comprised supporting a number of the pests on a medium which was usually a host plant or a foodstuff on which the pests feed, and treating either or both the pests and the medium with the preparations. The mortality of the pests was then assessed at periods usually varying from one to seven days after the treatment.
The results of the tests are given in Table III for each of the Products, at the rate in parts per million given in the second column as a grading of mortality designated as A, B or C wherein A indicates 80-100% mortality or knockdown (70-100% for Meloidogyne incognita), B indicates 50-79% mortality knockdown or knockdown (50-69% for Meloidogyne incognita) and C indicates less than 50% mortality or knockdown.

CCOc1ccc(C(=CCCc2cccc(Oc3ccccc3)c2)C(F)(F)F)cc1F [Compound 50, 1,1,1-Trifluoro-2-(3-fluoro-4-ethoxyphenyl)-5-(3-phenoxyphenyl)-pent-2-ene]
mortality at 450 ppm ([1]; 450 ppm): < 50% | mortality at 450 ppm ([2]; 450 ppm): < 50% | mortality at 450 ppm (Myzus persicae (aphids); 450 ppm): 80 to 100% | mortality at 450 ppm ([3]; 450 ppm): < 50% | pest or weed control at 450 ppm ([4]; 450 ppm): 80 to 100% | mortality at 450 ppm ([5]; 450 ppm): 80 to 100% | mortality at 450 ppm ([6]; 450 ppm): 80 to 100% | mortality at 450 ppm [7]: 80 to 100% | mortality at 450 ppm ([8]; 450 ppm): 80 to 100% | mortality at 450 ppm ([9]; 450 ppm): 80 to 100% | mortality at 225 µg/mL ([10]; rate column 450 ppm): < 50%

CCOc1c(F)cc(C(=CCCc2cccc(Oc3ccccc3)c2)C(F)(F)F)cc1F [Compound 51, 1,1,1-Trifluoro-2-(3,5-difluoro-4-ethoxyphenyl)-5-(3-phenoxyphenyl)pent-2-ene]
mortality at 500 ppm [1]: < 50% | mortality at 500 ppm [2]: < 50% | mortality at 500 ppm (Myzus persicae (aphids)): 80 to 100% | mortality at 500 ppm [3]: < 50% | pest or weed control at 500 ppm [4]: 80 to 100% | mortality at 500 ppm [5]: 80 to 100% | mortality at 500 ppm [6]: 80 to 100% | mortality at 500 ppm [7]: 80 to 100% | mortality at 500 ppm [8]: 80 to 100% | mortality at 500 ppm [9]: 80 to 100% | mortality at 250 µg/mL [10]: < 50%

CC1(C)Oc2ccc(C(CCCc3cccc(Oc4ccccc4)c3)C(F)(F)F)cc2O1 (centres unmarked) [Compound 58, 1,1,1-Trifluoro-2-[3,4-(dimethylmethylenedioxy)phenyl]-5-(3-phenoxyphenyl)pentane]
mortality at 500 ppm [1]: < 50% | mortality at 500 ppm [2]: 80 to 100% | mortality at 500 ppm (Myzus persicae (aphids)): 50 to 79% | mortality at 500 ppm [3]: 80 to 100% | pest or weed control at 500 ppm [4]: 80 to 100% | mortality at 500 ppm [5]: 80 to 100% | mortality at 500 ppm [6]: 80 to 100% | mortality at 500 ppm [7]: < 50% | mortality at 500 ppm [8]: 50 to 79% | mortality at 500 ppm [9]: 80 to 100% | mortality at 250 µg/mL [10]: < 50%

CC1Oc2ccc(C(CCCc3cccc(Oc4ccccc4)c3)C(F)(F)F)cc2O1 (centres unmarked) [Compound 61, 1,1,1-Trifluoro-2-[3,4-(methylmethylenedioxy)-phenyl]-5-(3-phenoxyphenyl)pentane]
mortality at 500 ppm [1]: < 50% | mortality at 500 ppm [2]: < 50% | mortality at 500 ppm (Myzus persicae (aphids)): 80 to 100% | mortality at 500 ppm [3]: 80 to 100% | pest or weed control at 500 ppm [4]: 80 to 100% | mortality at 500 ppm [5]: 80 to 100% | mortality at 500 ppm [6]: 80 to 100% | mortality at 500 ppm [7]: 80 to 100% | mortality at 500 ppm [8]: 80 to 100% | mortality at 500 ppm [9]: 80 to 100% | mortality at 250 µg/mL [10]: < 50%

CCOc1ccc(C(=CC=Cc2cccc(Oc3ccccc3)c2)C(F)F)cc1 [Compound 65, 1,1-Difluoro-2-(4-ethoxyphenyl)-5-(3-phenoxyphenyl)penta-2,4-diene]
mortality at 500 ppm [1]: < 50% | mortality at 500 ppm [2]: < 50% | mortality at 500 ppm (Myzus persicae (aphids)): < 50% | mortality at 500 ppm [3]: < 50% | pest or weed control at 500 ppm [4]: < 50% | mortality at 500 ppm [5]: < 50% | mortality at 500 ppm [6]: < 50% | mortality at 500 ppm [7]: < 50% | mortality at 500 ppm [8]: < 50% | mortality at 500 ppm [9]: < 50% | mortality at 250 µg/mL [10]: < 50%

CCOc1c(F)cc(C(=CC=Cc2ccc(F)c(Oc3ccccc3)c2)C(F)(F)F)cc1F [Compound 67, 1,1,1-Trifluoro-2-(3,5-difluoro-4-ethoxyphenyl)-5-(4-fluoro-3-phenoxyphenyl)penta-2,4-diene]
mortality at 500 ppm [1]: < 50% | mortality at 500 ppm [2]: < 50% | mortality at 500 ppm (Myzus persicae (aphids)): 80 to 100% | mortality at 500 ppm [3]: 80 to 100% | pest or weed control at 500 ppm [4]: < 50% | mortality at 500 ppm [5]: < 50% | mortality at 500 ppm [6]: < 50% | mortality at 500 ppm [7]: 80 to 100% | mortality at 500 ppm [8]: 80 to 100% | mortality at 500 ppm [9]: 80 to 100% | mortality at 250 µg/mL [10]: < 50%

FC(F)(F)Oc1ccc(C(=CC=Cc2cccc(Oc3ccccc3)c2)C(F)(F)Cl)cc1 [Compound 70, 1,1-Difluoro-1-chloro-2-(4-trifluoromethoxyphenyl)-5-(3-phenoxyphenyl)penta-2,4-diene]
mortality at 500 ppm [1]: < 50% | mortality at 500 ppm [2]: < 50% | mortality at 500 ppm (Myzus persicae (aphids)): < 50% | mortality at 500 ppm [3]: < 50% | pest or weed control at 500 ppm [4]: < 50% | mortality at 500 ppm [5]: < 50% | mortality at 500 ppm [6]: < 50% | mortality at 500 ppm [7]: < 50% | mortality at 500 ppm [8]: < 50% | mortality at 500 ppm [9]: < 50% | mortality at 250 µg/mL [10]: 50 to 69%

Fc1cc(Br)c(C(=CC=Cc2cccc(Oc3ccccc3)c2)C(F)(F)F)c(F)c1OC(F)(F)F [Compound 74, 1,1,1-Trifluoro-2-(2-bromo-4,6-difluoro-5-trifluoromethoxyphenyl)-5-(3-phenoxyphenyl)penta-2,4-diene]
mortality at 500 ppm [1]: 50 to 79% | mortality at 500 ppm [2]: < 50% | mortality at 500 ppm (Myzus persicae (aphids)): < 50% | mortality at 500 ppm [3]: < 50% | pest or weed control at 500 ppm [4]: < 50% | mortality at 500 ppm [5]: < 50% | mortality at 500 ppm [6]: < 50% | mortality at 500 ppm [7]: < 50% | mortality at 500 ppm [8]: < 50% | mortality at 500 ppm [9]: < 50% | mortality at 250 µg/mL [10]: < 50%

Fc1cc(C(=CC=Cc2cccc(Oc3ccccc3)c2)C(F)(F)F)cc(F)c1OC(F)(F)F [Compound 75, 1,1,1-Trifluoro-2-(3,5-difluoro-4-trifluoromethoxyphenyl)-5-(3-phenoxyphenyl)penta-2,4-diene]
mortality at 500 ppm [1]: < 50% | mortality at 500 ppm [2]: < 50% | mortality at 500 ppm (Myzus persicae (aphids)): < 50% | mortality at 500 ppm [3]: < 50% | pest or weed control at 500 ppm [4]: < 50% | mortality at 500 ppm [5]: < 50% | mortality at 500 ppm [6]: < 50% | mortality at 500 ppm [7]: < 50% | mortality at 500 ppm [8]: < 50% | mortality at 500 ppm [9]: < 50% | mortality at 250 µg/mL [10]: < 50%

Fc1ccc(C=CC=C(c2ccc(OC(F)(F)F)cc2)C(F)(F)Cl)cc1Oc1ccccc1 [Compound 76, 1,1-Difluoro-1-chloro-2-(4-trifluoromethoxyphenyl)-5-(4-fluoro-3-phenoxyphenyl)penta-2,4-diene]
mortality at 500 ppm [1]: < 50% | mortality at 500 ppm [2]: < 50% | mortality at 500 ppm (Myzus persicae (aphids)): < 50% | mortality at 500 ppm [3]: 80 to 100% | pest or weed control at 500 ppm [4]: < 50% | mortality at 500 ppm [5]: < 50% | mortality at 500 ppm [6]: < 50% | mortality at 500 ppm [7]: < 50% | mortality at 500 ppm [8]: < 50% | mortality at 500 ppm [9]: 80 to 100% | mortality at 250 µg/mL [10]: < 50%

Fc1ccc(C=CC=C(c2ccc(OC(F)(F)F)cc2)C(F)F)cc1Oc1ccccc1 [Compound 77, 1,1-difluoro-2-(4-trifluoromethoxyphenyl)-5-(4-fluoro-3-phenoxyphenyl)penta-2,4-diene]
mortality at 500 ppm [1]: < 50% | mortality at 500 ppm [2]: < 50% | mortality at 500 ppm (Myzus persicae (aphids)): 80 to 100% | mortality at 500 ppm [3]: 80 to 100% | pest or weed control at 500 ppm [4]: < 50% | mortality at 500 ppm [5]: < 50% | mortality at 500 ppm [6]: < 50% | mortality at 500 ppm [7]: 80 to 100% | mortality at 500 ppm [8]: 80 to 100% | mortality at 500 ppm [9]: 80 to 100% | mortality at 250 µg/mL [10]: 50 to 69%

CCOc1ccc(C(CC=Cc2cccc(Oc3ccccc3)n2)C(F)(F)F)cc1 (centres unmarked) [Compound 99, 1,1,1-Trifluoro-2-(4-ethoxyphenyl)-5-(6-phenoxypyrid-2-yl)pent-4-ene]
mortality at 500 ppm [1]: < 50% | mortality at 500 ppm [2]: < 50% | mortality at 500 ppm (Myzus persicae (aphids)): 50 to 79% | mortality at 500 ppm [3]: < 50% | pest or weed control at 500 ppm [4]: 80 to 100% | mortality at 500 ppm [5]: 80 to 100% | mortality at 500 ppm [6]: < 50% | mortality at 500 ppm [7]: 80 to 100% | mortality at 500 ppm [8]: 50 to 79% | mortality at 500 ppm [9]: < 50% | mortality at 250 µg/mL [10]: < 50%

CCOc1ccc(C(=CC=Cc2cccc(Oc3ccccc3)n2)C(F)(F)F)cc1 [Compound 100, 1,1,1-Trifluoro-2-(4-ethoxyphenyl)-5-(6-phenoxypyrid-2-yl)penta-2,4-diene]
mortality at 500 ppm [1]: < 50% | mortality at 500 ppm [2]: < 50% | mortality at 500 ppm (Myzus persicae (aphids)): < 50% | mortality at 500 ppm [3]: 50 to 79% | pest or weed control at 500 ppm [4]: 50 to 79% | mortality at 500 ppm [5]: < 50% | mortality at 500 ppm [6]: < 50% | mortality at 500 ppm [7]: < 50% | mortality at 500 ppm [8]: < 50% | mortality at 500 ppm [9]: < 50% | mortality at 250 µg/mL [10]: < 50%

— patent publication US4791139A, “Diphenyl ether derivatives and their use as insecticides” (Imperial Chemical Industries PLC, priority 1986, dated 1988)
